Measured values: US20140018375A1, “BIOLOGICAL MARKERS PREDICTIVE OF ANTI-CANCER RESPONSE TO EPIDERMAL GROWTH FACTOR RECEPTOR KINASE INHIBITORS” (priority 2005, published 2014)
“Also recorded” adds a separate entry of the source. Where two headings read alike, the source gives them in different places.

Tests used:
Calu6 xenograft = test: NSCLC xenograft tumor growth inhibition, Calu6; assay type: in vivo, mouse; conditions: oral gavage once a day for 14 days
Description: (§1) Female CD-1 nu/nu mice (Charles River Laboratories) were implanted with harvested NSCLC tumor cells in a single subcutaneous site on the flank of the mice in the axillary region. Tumors were allowed to grow to 200±50 mm^3, at which time the animals were sorted into treatment groups of 8 animals per group based on weight (±1 g body weight) and tattooed on the tail for permanent identification. Tumor volumes and body weights were determined twice weekly. The tumor volume was determined by measuring in two directions with vernier calipers and calculated using the formula: Tumor volume=(length×width^2)/2. The data were plotted as the % change in mean values of tumor volume and body weight for each group. […]. Tumor growth inhibition studies were dosed by oral gavage once a day for 14 days. Pharmacodynamic studies were dosed by oral gavage for 1-3 days with tumors from 4 control and 4 TARCEVA™ treated animals harvested and snap frozen in liquid nitrogen 4 hours after dosing on Days 1, 2 and 3.

H292 xenograft = test: NSCLC xenograft tumor growth inhibition, H292; assay type: in vivo, mouse; conditions: oral gavage once a day for 14 days
Description: as §1

NSCLC cells = test: anti-phosphotyrosine capture and LC-MS/MS (iTRAQ) after erlotinib exposure; assay type: cell-based, human
Description: Anti-phosphotyrosine immunoaffinity resins were prepared by covalent coupling to a solid support by standard methods. Freshly prepared immunoaffinity resins were used for each biological experiment to maximize binding and reduce carryover. Briefly, anti-phosphotyrosine antibodies were crosslinked to solid-support and non-covalently bound IgG removed by low pH elution. […] Proteins isolated by anti-phosphotyrosine affinity selection were measured by iTRAQ labeling of tryptic peptides as previously described (Ross et al, (2004) Mol Cell Proteomics 3(12) 1154-1169; Haley et al., 2004). Peptide masses and sequence information were determined by electrospray LC-MS/MS and database searching. Peptides with confidence levels of >=90% with scores of >=20 were considered, after which spectra were inspected manually. […]. Proteins were clustered by temporal log2 protein expression ratios using Euclidian hierarchical methods and self-organizing maps.
Proteins associated with survival signaling and epithelial-mesenchymal cell phenotypes were isolated and measured using multiple experimental approaches, including mass spectrometry. Individual protein abundance, or extent of phosphorylation on tyrosine residues, was compared between different NSCLC tumor lines. Mass spectrometry approaches additionally included cellular fractionation, phosphotyrosine protein-capture and phosphopeptide-capture using four NSCLC model cell lines. The NSCLC lines were chosen to reflect a range of sensitivities to pharmacological EGFR inhibition both in vitro and in xenografts. These NSCLC lines also span both epithelial and mesenchymal-like tumor phenotypes arising from EMT-like transitions occurring during tumor progression. Two MS quantitation approaches were pursued. First, between-cell comparisons were performed where membrane-particulate and cytosolic fractions were isolated and differences in protein abundance measured. In both cases the iTRAQ peptide labeling method was used to allow relative quantitation of proteins isolated under the different biological conditions. […]. Protein samples were proteolytically cleaved with trypsin, separately labeled with isobaric stable isotope mass labels (iTRAQ; Ross et al., 2005; Petti et al. 2005), combined and subjected to LC-MS/MS. Protein identification criteria conformed to the guidelines proposed by Bradshaw et al. (Bradshaw R. A., Burlingame A. L., Carr S., and Aebersold R. (2006) Mol Cell Proteomics 5:787-788).

H441 = test: Cell-Titer Glo cell viability assay, H441; assay type: cell-based, human
Description: (§2) On day 1, NSCLC cells were plated 3-5×10^4 cells/well in 96 well plates in their normal serum-containing media. […] Manufacturers instructions were followed for the assay. Experiments were conducted in triplicate to at least an n=3. Data was normalized as a percentage inhibition compared to DMSO only control wells and concentration-response analysis was performed using Prizm graphing software.
(§3) The concentration response curves were analyzed in two ways.

H358 = test: Cell-Titer Glo cell viability assay, H358; assay type: cell-based, human
Description: as §2, §3

BxPC3 = test: growth inhibition of pancreatic cell line in vitro, BxPC3; assay type: cell-based
Excerpt: (§4) We next extended these studies to ask whether these observations would be applicable to other cancer cell types.

H1703 = test: Cell-Titer Glo cell viability assay, H1703; assay type: cell-based, human; conditions: for EC50: Homo sapiens
Description: as §2, §3

H322 = test: Cell-Titer Glo cell viability assay, H322; assay type: cell-based, human
Description: as §2, §3

H460 = test: Cell-Titer Glo cell viability assay, H460; assay type: cell-based, human; conditions: for EC50: Homo sapiens
Description: as §2, §3

Calu6 = test: Cell-Titer Glo cell viability assay, Calu6; assay type: cell-based, human; conditions: for EC50: Homo sapiens
Description: as §2, §3

SW1573 = test: Cell-Titer Glo cell viability assay, SW1573; assay type: cell-based, human
Description: as §2, §3

H292 = test: Cell-Titer Glo cell viability assay, H292; assay type: cell-based, human
Description: as §2, §3

H441 xenograft = test: NSCLC xenograft tumor growth inhibition, H441; assay type: in vivo, mouse; conditions: oral gavage once a day for 14 days
Description: as §1

H460 xenograft = test: NSCLC xenograft tumor growth inhibition, H460; assay type: in vivo, mouse; conditions: oral gavage once a day for 14 days
Description: as §1

MiaPaca2 = test: growth inhibition of pancreatic cell line in vitro, MiaPaca2; assay type: cell-based
Excerpt: as §4

A549 = test: Cell-Titer Glo cell viability assay, A549; assay type: cell-based, human
Description: as §2, §3

A549 xenograft = test: NSCLC xenograft tumor growth inhibition, A549; assay type: in vivo, mouse; conditions: oral gavage once a day for 14 days
Description: as §1

H358 xenograft = test: NSCLC xenograft tumor growth inhibition, H358; assay type: in vivo, mouse; conditions: oral gavage once a day for 14 days
Description: as §1

Compound: C#Cc1cccc(Nc2ncnc3cc(OCCOC)c(OCCOC)cc23)c1 [erlotinib, [6,7-bis(2-methoxyethoxy)-4-quinazolin-4-yl]-(3-ethynylphenyl)amine]
- % TGI Day 15 (Calu6 xenograft): 0%
- % TGI Day 15 (H292 xenograft): 85%
- phosphocapture of the p21-activated kinase PAK2 (NSCLC cells; H1703 cells, 1, 4 and 24 hours): stimulated at all time points
- regulation of Actin-like protein-6A and β-actin (NSCLC cells; cells with an epithelial phenotype, within 1 hour of erlotinib exposure (1 μM)): upregulation
- regulation of α- and γ-actins and vimentin phosphoproteins (NSCLC cells; mesenchymal-like NSCLC cells, within 1 hour of erlotinib exposure (1 μM)): Down regulation
- phosphocapture of Rho-GEF7 (NSCLC cells; mesenchymal-like cells): significant erlotinib-dependent increase
- tyrosine phosphorylation for Erk2, ubiquitin and the tyrosine phosphatases SHP-2 and BDP-18 (NSCLC cells; primarily associated with an epithelial cell state): downregulation
- Max. Inhibition (%) (H441): 55%
- Classification of sensitivity to erlotinib-mediated growth inhibition (H441; H441, in vitro and in xenografts): Sensitive; also recorded: intermediate
- EC50 (H441; Homo sapiens, NCI-H441, 72 h, read-out: EC50 Half Maximal): 2 µM
- Max. Inhibition (%) (H358): 72%
- Classification of sensitivity to erlotinib-mediated growth inhibition (H358; H358, in vitro and in xenografts): Sensitive
- EC50 (H358; Homo sapiens, NCI-H358, 72 h, read-out: EC50 Half Maximal): 0.6 µM
- sensitivity to growth inhibition by erlotinib (BxPC3): sensitive
- Max. Inhibition (%) (H1703): 30%
- Classification of sensitivity to erlotinib-mediated growth inhibition (H1703; H1703): relatively insensitive
- EC50 (H1703; NCI-H1703, 72 h, read-out: EC50 Half Maximal): 7 µM
- EC50 (H1703; NCI-H1703, read-out: EC50, growth inhibition in vitro): > 10 µM
- Max. Inhibition (%) (H322): 80%
- Classification of sensitivity to erlotinib-mediated growth inhibition (H322; H322): Sensitive
- EC50 (H322; Homo sapiens, NCI-H322, 72 h, read-out: EC50 Half Maximal): 0.4 µM
- Max. Inhibition (%) (H460): 30%
- Classification of sensitivity to erlotinib-mediated growth inhibition (H460; H460, in vitro and in xenografts): relatively insensitive
- EC50 (H460; NCI-H460, 72 h, read-out: EC50 Half Maximal): 5 µM
- EC50 (H460; NCI-H460, read-out: EC50, growth inhibition in vitro): > 10 µM
- Max. Inhibition (%) (Calu6): 46%
- Classification of sensitivity to erlotinib-mediated growth inhibition (Calu6; Calu6, in vitro and in xenografts): relatively insensitive
- EC50 (Calu6; Calu-6, 72 h, read-out: EC50 Half Maximal): > 10 µM
- EC50 (Calu6; Calu-6, read-out: EC50, growth inhibition in vitro): > 10 µM
- Max. Inhibition (%) (SW1573): 25%
- EC50 (SW1573; Homo sapiens, SW1573, 72 h, read-out: EC50 Half Maximal): 9 µM
- Classification of sensitivity to erlotinib-mediated growth inhibition (SW1573; SW1573): relatively insensitive
- Max. Inhibition (%) (H292): 69%
- Classification of sensitivity to erlotinib-mediated growth inhibition (H292; H292, in vitro and in xenografts): Sensitive
- EC50 (H292; Homo sapiens, NCI-H292, 72 h, read-out: EC50 Half Maximal): 0.1 µM
- % TGI Day 15 (H441 xenograft): 60%
- % TGI Day 15 (H460 xenograft): 6%
- sensitivity to growth inhibition by erlotinib (MiaPaca2): relatively insensitive
- Max. Inhibition (%) (A549): 30%
- Classification of sensitivity to erlotinib-mediated growth inhibition (A549; A549, in vitro and in xenografts): intermediate sensitivity
- EC50 (A549; Homo sapiens, A549, 72 h, read-out: EC50 Half Maximal): 5 µM
- % TGI Day 15 (A549 xenograft): 49%
- % TGI Day 15 (H358 xenograft): 25%
